Laboratory results taken from patent US20200277268A1, “PENTAFLUOROPHENYL SULFONAMIDE COMPOUNDS, COMPOSITIONS AND USES THEREOF” (DALRIADA THERAPEUTICS INC., priority 2017, published 2020).
pIC50: −log10 of the molar value.

Key:
in vitro = settings: mouse, hepatocytes
Experimental: (§3) A stock of 100 μM test compound was prepared by diluting the 10 mM I-1 test compound in DMSO with a solution of 50% acetonitrile and 50% water. In a 96-well non-coated plate, 198 μL of hepatocytes was pipetted, and the plate was placed in the incubator on an orbital shaker to allow the hepatocytes to warm for 10 minutes. To this solution 2 μL of the 100 μM I-1 was added to start the reaction, and the plate was placed on an orbital shaker. […] The reaction solution was then vortexed for 10 minutes and centrifuged at 4,000 rpm for 30 minutes at 4° C. Next, 400 μL of the supernatant was transferred to one new 96-well plate, centrifuged at 4,000 rpm for 30 minutes at 4° C., and 100 μL of the supernatant was transferred to a new 96-well plate ensuring the pellet was not disturbed. 100 μL of ultrapure water was added to all samples for analysis by LC-MS/MS.
Injection volume was 10 μL.

[1] = system: healthy human lung cells (MRC9); experiment: CellTiter-Blue cell viability, MRC9; format: cell-based; settings: non-cancerous, 72 hours
Experimental: (§1) The anti-cancer efficacy of exemplary compounds of the application were assessed in vitro against different cancer cell lines. Cell viability was examined following treatment at various concentrations of inhibitor (0.097656-50 μM) using a CellTiter-Blue® cell viability assay. 1×10^4 cells/well were plated in 96-well assay plates in culture medium. All cells were grown in DMEM, IMDM and RPMI-1640 supplemented with 10% fetal bovine serum (FBS). In some instances, FBS was removed for periods ranging from 16-24 hours, and re-introduced with test compound addition. After 24 hrs, test compounds and vehicle controls were added to appropriate wells such that the final volume was 100 μl in each well. The cells were cultured for the desired test exposure period (72 hours) at 37° C. and 5% CO2. The assay plates were removed from 3° C. incubator and 20 μl/well of CellTiter-Blue® Reagent was added. The plates were incubated using standard cell culture conditions for 1-4 hours. Afterwards, the plates were shaken for 10 seconds and florescence was recorded at 560/590 nm using a Cytation 3 spectrophotometer. IC50 values were determined using non-linear regression analysis with GraphPad Prism 6.0 (GraphPad Software Inc.).

MV4-11 = experiment: CellTiter-Blue cell viability, MV4-11; format: cell-based; settings: for pIC50: Homo sapiens, MV4-11, AML cell line, 72 hours
Experimental: as §1

[2] = system: healthy keratinocyte cells (HaCaT); experiment: CellTiter-Blue cell viability, HaCaT; format: cell-based; settings: Homo sapiens, non-cancerous, 72 hours
Experimental: as §1

MOLM13 = experiment: CellTiter-Blue cell viability, MOLM13; format: cell-based; settings: Homo sapiens, MOLM-13; AML cell line, 72 hours
Experimental: as §1

[3] = system: primary human fibroblast cells (PHF); experiment: CellTiter-Blue cell viability, PHF; format: cell-based; settings: non-cancerous, 72 hours
Experimental: as §1

[4] = Intrinsic clearance in mouse hepatocytes
Experimental: as §3
Injection volume was 10 μL.

D425 = experiment: Cell viability, medulloblastoma D425; format: cell-based; settings: medulloblastoma cell line
Experimental: as §1, with “Inc.). […]” for “Inc.).”

ATCC3034 = experiment: Cell viability, medulloblastoma ATCC3034; format: cell-based; settings: medulloblastoma cell line
Experimental: as §1, with “Inc.). […]” for “Inc.).”

D458 = experiment: Cell viability, medulloblastoma D458; format: cell-based; settings: medulloblastoma cell line
Experimental: as §1, with “Inc.). […]” for “Inc.).”

GBM8 = experiment: Proliferation of patient derived GBM BTIC line GBM8; format: cell-based; settings: 62.5, 125, 250 nM, four days
Experimental: (§2) Glioblastoma (GBM) tumor cells with stem-cell properties termed brain tumor initiating cells (BTICs,) are enriched using serum-free culture. Effects of select exemplary compounds were tested on cell proliferation in patient derived GBM BTIC lines: GBM8 and BT428. GBM BTICs were cultured in NeuroCult™ NS-A Proliferation Medium (STEMcell Technologies) supplemented with epidermal growth factor (20 ng/mL), basic fibroblast growth factor (10 ng/mL) and 2 ug/mL of Heparin. The cells were dissociated into single cells and viable cells sorted into 96 well plate at a density of 1000 cells/well. The cells were then treated with varying doses of selected compounds (250 nM, 125 nM, 62.5 nM) with three technical replicates per dilution. DMSO was used as control. Four days following the addition of compounds, the proliferative capacity of GBM BTICs was assessed using PrestoBlue Cell Viability reagent (Invitrogen).

[5] = system: UFMylation pathway (UBA5, UFC1, UFM1, c-Myc) in MV4-11 cells; experiment: Western blot of UFMylation pathway in MV4-11 cells; format: cell-based; settings: 8 hours, 0 to 1 μM
Experimental: Post-treatment (8 hours) of MV4-11 cells with I-1 test compound at 1, 0.5, 0.25, 0.1 and 0 μM concentrations, all cells were lysed with radioimmunoprecipitation assay (RIPA) buffer: 20 mM Tris pH 7.4, 150 mM NaCl, 0.5% deoxycholate, 1% Triton X-100, 0.1% sodium dodecyl sulfate (SDS). Total protein was measured using BCA assay (Sigma). In each assay, clarified protein were resolved on a 4%-15% polyacrylamideSDS gel and transferred to a PVDF membrane (Bio-Rad). The membranes were blocked with 5% solution of skim milk powder in TBST and incubated for at least 1 hour followed by an overnight incubation at 4° C. in primary antibody (1:1000 dilution). Blots were probed with antibodies against UBA5, UFM1, UFC1, c-Myc, and beta-actin was used as a loading control (Santa Cruz Biotechnology catalog # sc-835). The PVDF membrane then washed with TBST (3 times for 5 minutes). A horseradish peroxides (HRP)-conjugated goat anti-mouse IgG secondary antibodies (Cell signaling Catalog #7076S) was applied to the membrane (1:5000 dilution) and incubated for 1 hour at room temperature. The blots were then rinsed again 3 times in TBST for 10 minutes. Bands were visualized using clarity western ECL substrate luminal/enhancer solution and peroxide solution 1:1 ratio for HRP secondary antibody, according to the manufacturer's instructions (Bio-Rad) and analyzed using Image lab software (Bio-Rad).

BT428 = experiment: Proliferation of patient derived GBM BTIC line BT428; format: cell-based; settings: 62.5, 125, 250 nM, four days
Experimental: as §2

SMILES: COc1ccc(NS(=O)(=O)c2c(F)c(F)c(F)c(F)c2F)cc1F [Batabulin]
- half-life at 1 μM (in vitro): 0.298 h

SMILES: O=S(=O)(c1ccc(F)cc1)N(Cc1ccc(F)cc1)C1CC1 [Comparative Example 3, N-cyclopropyl-4-fluoro-N-(4-fluorobenzyl)benzenesulfonamide, reference compound]
- pIC50 [1]: < 4.60
- activity in AML cells (MV4-11; AML cells (MV4-11 and MOLM13)): inactive
- pIC50 (MV4-11): < 4.60
- pIC50 [2]: < 4.60
- pIC50 (MOLM13): < 4.60

SMILES: O=S(=O)(c1c(F)c(F)c(F)c(F)c1F)N(Cc1ccc(Cl)cc1)C1CC1 [Compound I-7, N-(4-chlorobenzyl)-N-cyclopropyl-2,3,4,5,6-pentafluorobenzenesulfonamide]
- pIC50 [1]: 4.79
- pIC50 (MV4-11): 5.86
- pIC50 [3]: 5.57
- half-life at 1 μM [4]: 1.92 h
- pIC50 (D425): 5.85
- pIC50 (ATCC3034): 6.52
- pIC50 (D458): 5.70
- pIC50 (MOLM13): 5.46

SMILES: COc1ccc(CN(C2CC2)S(=O)(=O)c2c(F)c(F)c(F)c(F)c2F)cc1 [Compound I-8, N-cyclopropyl-2,3,4,5,6-pentafluoro-N-(4-methoxybenzyl)benzenesulfonamide]
- pIC50 (MV4-11): 6.03
- pIC50 [2]: 4.76
- pIC50 (MOLM13): 6.14

SMILES: O=S(=O)(c1c(F)c(F)c(F)c(F)c1F)N(Cc1ncc(F)cc1F)C1CC1 [Compound I-37, N-cyclopropyl-N-((3,5-difluoropyridin-2-yl)methyl)-2,3,4,5,6-pentafluorobenzenesulfonamide]
- pIC50 [1]: 4.66
- pIC50 (MV4-11): 5.77
- effect on cell proliferation in GBM8 (GBM8): show potency
- pIC50 [3]: 5.06
- pIC50 (MOLM13): 5.54

SMILES: O=S(=O)(c1c(F)c(F)c(F)c(F)c1F)N(Cc1ccccc1F)C1CC1 [Compound I-40, N-cyclopropyl-2,3,4,5,6-pentafluoro-N-(2-fluorobenzyl)benzenesulfonamide]
- pIC50 (MV4-11): 6.48
- reduction of UBA5 levels and UFC1-UFM1 conjugate levels [5]: comparable activity to I-1
- pIC50 (MOLM13): 5.49

SMILES: O=S(=O)(c1c(F)c(F)c(F)c(F)c1F)N(Cc1ncccc1C(F)(F)F)C1CC1 [Compound I-43, N-cyclopropyl-2,3,4,5,6-pentafluoro-N-((3-(trifluoromethyl)pyridin-2-yl)methyl)benzenesulfonamide]
- pIC50 [1]: 5.08
- effect on cell proliferation in BT428 (BT428): show potency
- pIC50 (MV4-11): 5.78
- pIC50 (MOLM13): 5.39

SMILES: O=S(=O)(c1c(F)c(F)c(F)c(F)c1F)N(Cc1ccc(F)cc1)C1CCC1 [Compound I-55, N-cyclobutyl-2,3,4,5,6-pentafluoro-N-(4-fluorobenzyl)benzenesulfonamide]
- pIC50 (MV4-11): 6.37
- pIC50 [3]: 5.60
- reduction of UBA5 levels and UFC1-UFM1 conjugate levels [5]: comparable activity to I-1
- pIC50 (MOLM13): 6.14
